# Experimental data taken from ChEMBL document CHEMBL4334517, “Flavipesines A and B and Asperchalasines E-H: Cytochalasans and Merocytochalasans from Aspergillus flavipes” (J Nat Prod, 2019).
# pIC50: −log10 of the molar value.
# Molecular target: Isocitrate dehydrogenase [NADP] cytoplasmic (Homo sapiens, UniProt O75874, R132H)
# Assay: Inhibition of IDH1 R132H mutant (unknown origin) assessed as reduction in NADPH consumption using alpha-KG as substrate incubated for 5 mins followed by substrate addition and measured every 1 min
# Sequence of Isocitrate dehydrogenase [NADP] cytoplasmic (O75874 2-414 R132H limits assumed): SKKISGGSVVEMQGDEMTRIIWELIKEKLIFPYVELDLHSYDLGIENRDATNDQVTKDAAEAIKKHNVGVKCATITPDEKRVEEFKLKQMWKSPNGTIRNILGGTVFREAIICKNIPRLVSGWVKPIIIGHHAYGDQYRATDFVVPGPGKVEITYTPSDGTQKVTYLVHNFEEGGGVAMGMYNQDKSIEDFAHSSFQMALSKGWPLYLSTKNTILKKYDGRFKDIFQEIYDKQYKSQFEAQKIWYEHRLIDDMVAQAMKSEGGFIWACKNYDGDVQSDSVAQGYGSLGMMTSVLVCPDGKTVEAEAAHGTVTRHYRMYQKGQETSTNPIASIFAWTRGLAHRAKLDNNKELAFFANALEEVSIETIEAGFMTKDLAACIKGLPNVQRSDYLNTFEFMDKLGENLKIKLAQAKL
row,pIC50,SMILES
1,6.70,Cc1ccccc1C(C(=O)NC1CCCCC1)N(C(=O)Cn1ccnc1C)c1cccc(F)c1 (stereo not given)
2,< 4.30,CC(C)C[C@@H]1NC(=O)[C@]23[C@H]1[C@H](C)C(CO)=C[C@@H]2[C@@H]1[C@@]2(CCC[C@@]1(C)O)CC[C@]3(O)O2
3,< 4.30,CC1=C[C@@H]2/C=C(\C)CC[C@@H](O)C(=O)[C@H]3[C@H](C(=O)[C@]24C(=O)N[C@@H](CC(C)C)[C@@H]4[C@@H]1C)[C@@H]1O[C@H]3c2c(O)c(O)c(O)c(C)c21
4,< 4.30,CC1=C[C@@H]2/C=C(\C)CC[C@@H](O)C(=O)[C@H]3[C@H](C(=O)[C@]24C(=O)N[C@@H](CC(C)C)[C@@H]4[C@@H]1C)[C@@H]1O[C@H]3c2c(C)c(O)c(O)c(O)c21
5,< 4.30,C=C1CC[C@@H](O)[C@]23CC[C@](O)(O2)[C@@]24C(=O)N[C@@H](CC(C)C)[C@@H]2[C@H](C)C(C)=C[C@@H]4[C@@H]13
6,< 4.30,CC1=C[C@@H]2/C=C(\C)CC[C@@H](O)C(=O)[C@H]3[C@H](C(=O)[C@]24C(=O)N[C@@H](CC(C)C)[C@@H]4[C@@H]1C)[C@H]1O[C@@H]3c2c(O)c(O)c(O)c(C)c21
7,4.88,COc1c(O)c(C)c2c(c1O)[C@H]1O[C@@H]2[C@H]2C(=O)[C@@]34C(=O)N[C@@H](CC(C)C)[C@@H]3[C@H](C)C(C)=C[C@@H]4/C=C(\C)CC[C@@H](O)C(=O)[C@@H]21
8,4.76,COc1c(O)c(C)c2c(c1O)[C@@H]1O[C@H]2[C@H]2C(=O)[C@H](O)CC/C(C)=C/[C@H]3C=C(C)[C@@H](C)[C@H]4[C@H](CC(C)C)NC(=O)[C@]43C(=O)[C@@H]21
9,4.36,COc1c(O)c(C)c2c(c1O)[C@@H]1O[C@H]2[C@H]2C(=O)[C@@]34C(=O)N[C@@H](CC(C)C)[C@@H]3[C@H](C)C(C)=C[C@@H]4/C=C(\C)CC[C@@H](O)C(=O)[C@@H]21
10,4.93,COc1c(O)c(C)c2c(c1O)[C@H]1O[C@@H]2[C@H]2C(=O)[C@H](O)CC/C(C)=C/[C@H]3C=C(C)[C@@H](C)[C@H]4[C@H](CC(C)C)NC(=O)[C@]43C(=O)[C@@H]21
